Values after ≈ are worked out from the molar mass of the structure shown.
Assays:
HepG2 [1] = test: Cytotoxicity against human HepG2 cells after 48 hrs by sulforhodamine B assay; type: functional, cell-based; conditions: Homo sapiens, HepG2, 48 h
NCI-H460 = test: Cytotoxicity against human NCI-H460 cells after 48 hrs by sulforhodamine B assay; type: functional, cell-based; conditions: Homo sapiens, NCI-H460, 48 h
SF-268 = test: Cytotoxicity against human SF268 cells after 48 hrs by sulforhodamine B assay; type: functional, cell-based; conditions: Homo sapiens, SF-268, 48 h
MCF7 [2] = test: Cytotoxicity against human MCF7 cells after 48 hrs by sulforhodamine B assay; type: functional, cell-based; conditions: Homo sapiens, MCF7, 48 h
L5178Y = test: Cytotoxicity against mouse L5178Y cells by MTT assay; type: functional, cell-based
A549 [3] = test: Cytotoxicity against human A549 cells after 72 hrs by MTT assay; type: functional, cell-based; conditions: A549, 72 h
HepG2 [4] = test: Cytotoxicity against human HepG2 cells after 72 hrs by MTT assay; type: functional, cell-based; conditions: HepG2, 72 h
PC-3 = test: Cytotoxicity against human PC3 cells after 48 hrs by MTT assay; type: functional, cell-based; conditions: PC-3, 48 h
MCF7 [5] = test: Cytotoxicity against human MCF7 cells after 48 hrs by MTT assay; type: functional, cell-based; conditions: Homo sapiens, MCF7, 48 h; read-out: IC50
A549 [6] = test: Cytotoxicity against human A549 cells after 48 hrs by MTT assay; type: functional, cell-based; conditions: Homo sapiens, A549, 48 h; read-out: IC50
SH-SY5Y [7] = test: Cytotoxicity against human SH-SY5Y cells after 48 hrs by MTT assay; type: functional, cell-based
NB-4 = test: Cytotoxicity against human NB4 cells after 48 hrs by MTT assay; type: functional, cell-based; conditions: NB-4, 48 h
SH-SY5Y [8] = test: Cytotoxicity against human SH-SY5Y cells by MTT assay; type: functional, cell-based
L02 = test: Cytotoxicity against human L02 cells by MTS assay; type: cell-based
HepG2 [9] = test: Cytotoxicity against human HepG2 cells by MTT assay; type: functional, cell-based
HL-60 = test: Cytotoxicity against human HL60 cells after 72 hrs by MTT assay; type: functional, cell-based; conditions: HL-60, 72 h
MCF7 [10] = test: Cytotoxicity against human MCF7 cells after 72 hrs by MTT assay; type: functional, cell-based; conditions: MCF7, 72 h
Raji = test: Cytotoxicity against human Raji cells after 72 hrs by MTT assay; type: functional, cell-based
A549 [11] = test: Cytotoxicity against human A549 cells by MTT assay; type: functional, cell-based
MCF7 [12] = test: Cytotoxicity against human MCF7 cells by MTT assay; type: functional, cell-based
[13] = Cytotoxicity against human KATO III cells after 72 hrs by MTT assay; type: functional, cell-based

Structure (SMILES): C/C=C(\C)C(=O)[C@@H](C)c1cc(O)c2c(c1O)O[C@]1(C)CC[C@H]3O[C@@H](C(C)(C)O)CC[C@]3(C)[C@H]1C2=O
- IC50 (HepG2 [1]): 6.4 to 42.6 µM
- IC50 (NCI-H460): 6.4 to 42.6 µM
- IC50 (SF-268): 6.4 to 42.6 µM
- IC50 (MCF7 [2]): 6.4 to 42.6 µM

Structure (SMILES): COc1cc(O)c2c(c1-c1c(OC)cc(O)c3c1C(=O)C1=C(C3=O)[C@H](O)[C@@H](OC(C)=O)[C@@](C)(O)[C@@H]1O)C(=O)C1=C(C2=O)[C@H](O)[C@@H](O)[C@@](C)(O)[C@@H]1O
- IC50 (L5178Y): 10.4 µM

Structure (SMILES): CC1=C2C(=C[C@H](O)C(O)=C2O)[C@H](C)[C@@H](C)O1
- IC50 (A549 [3]): 23.7 µM
- IC50 (HepG2 [4]): 35.7 µM

Structure (SMILES): C[C@H]1C(=O)N2c3ccccc3[C@@]3(O)C[C@H](n4cnc5ccccc5c4=O)C(=O)N1[C@@H]23
- IC50 (PC-3): 32.2 µM

Structure (SMILES): CC(C)=CCc1cc2c3c(c1)N(C)C(=O)[C@]31O[C@]3(O)[C@@H](O)C(=O)N4C(C)(C)[C@H](C2)[C@H]1[C@@]43O
- IC50 (MCF7 [5]): 1.2 to 4.2 µM
- IC50 (A549 [6]): 1.2 to 4.2 µM
- IC50 (SH-SY5Y [7]): 1.2 to 4.2 µM
- IC50 (PC-3): 1.2 to 4.2 µM
- IC50 (NB-4): 1.2 to 4.2 µM

Structure (SMILES): COC(=O)[C@]1(Cc2ccc(O)c(CC=C(C)C)c2)OC(=O)C(O)=C1c1ccc(OC)cc1
- IC50 (SH-SY5Y [8]): < 10 µM
- IC50 (L02): < 10 µM
- IC50 (HepG2 [9]): < 10 µM

Structure (SMILES): CCC(=O)Cc1c(OC)cc(=O)oc1CO
- IC50 (A549 [3]): 1 to 26.8 mg/L
- IC50 (HL-60): 1 to 26.8 mg/L (≈ 4.42 to 118 µM)
- IC50 (HepG2 [4]): 1 to 26.8 mg/L
- IC50 (MCF7 [10]): 1 to 26.8 mg/L
- IC50 (Raji): 1 to 26.8 mg/L (≈ 4.42 to 118 µM)

Structure (SMILES): CC(=O)Cc1cc2c(CCCO)cc(O)cc2c(=O)o1
- IC50 (MCF7 [5]): 2.8 to 8.8 µM
- IC50 (A549 [6]): 2.8 to 8.8 µM
- IC50 (SH-SY5Y [7]): 2.8 to 8.8 µM
- IC50 (PC-3): 2.8 to 8.8 µM
- IC50 (NB-4): 2.8 to 8.8 µM

Structure (SMILES): C[C@@H]1CC2=C(CO1)C(=O)[C@@](C)(O)[C@@H](O)C2
- IC50 (A549 [11]): 41.9 µM
- IC50 (MCF7 [12]): 2.5 µM

Structure (SMILES): COc1cc(O)c2c(=O)cc(C)oc2c1[C@@H](C[C@@H](OC)C(=O)O)OC
- IC50 [13]: 16.8 µM

Structure (SMILES): COC(=O)c1cccc2oc3cc(C)cc(O[C@@H]4O[C@H](CO)[C@@H](O)[C@H](O)[C@H]4O)c3c(=O)c12
- IC50 (L02): 6.8 mg/L

Structure (SMILES): C[C@H]1[C@@H](O)CCC(C)(C)[C@@]12CC=C(C(=O)O)CC2
- IC50 [13]: 25.3 µM

Structure (SMILES): CCC/C=C/[C@H]1C=CC(=O)[C@H](O)[C@H]1C(=O)C(C)O (stereo partly drawn)
- IC50 (HepG2 [1]): 46.8 µM
- IC50 (NCI-H460): 36.4 µM
- IC50 (SF-268): 40.5 µM
- IC50 (MCF7 [2]): 15.7 µM

Structure (SMILES): COC(=O)[C@]1(Cc2cc(CC=C(C)C)c(O)c(OC)c2)OC(=O)C(O)=C1c1ccc(O)cc1
- IC50 (L02): 4.2 µM
- IC50 (HepG2 [9]): 3.6 µM

Structure (SMILES): COc1ccc2c(c1CC=C(C)C)C=C(C)OC2
- IC50 (SH-SY5Y [8]): 6.8 µM
- IC50 (HepG2 [9]): 8.2 µM

Structure (SMILES): CC[C@H](C)c1[nH]c2c(c1C)C(=O)C1=C(C2=O)[C@@H](O)[C@@H]2[C@@]3(C)CC[C@H](C(C)(C)O)O[C@@H]3CC[C@@]2(C)O1
- IC50 (HepG2 [1]): 6.4 to 42.6 µM
- IC50 (NCI-H460): 6.4 to 42.6 µM
- IC50 (SF-268): 6.4 to 42.6 µM
- IC50 (MCF7 [2]): 6.4 to 42.6 µM

Structure (SMILES): COc1cc(O)c2c(=O)cc(C)oc2c1[C@H](C[C@@H](OC)C(=O)O)OC
- IC50 (MCF7 [10]): 17.7 µM
- IC50 [13]: 16 µM

Structure (SMILES): COc1cc(C)c2c(c1)oc(=O)c1c(O)cc(O[C@@H]3O[C@H](CO)[C@H](O)[C@H](O)[C@H]3O)cc12
- IC50 (L02): 7.2 mg/L

Structure (SMILES): C/C(=C\Cc1c(O)ccc2c1C=C(CO)OC2)CO
- IC50 (MCF7 [5]): 2.8 to 8.8 µM
- IC50 (A549 [6]): 2.8 to 8.8 µM
- IC50 (SH-SY5Y [7]): 2.8 to 8.8 µM
- IC50 (PC-3): 2.8 to 8.8 µM
- IC50 (NB-4): 2.8 to 8.8 µM

Structure (SMILES): COc1ccc2c(c1C/C=C(\C)CO)C=C(CO)OC2
- IC50 (MCF7 [5]): 2.8 to 8.8 µM
- IC50 (A549 [6]): 2.8 to 8.8 µM
- IC50 (SH-SY5Y [7]): 2.8 to 8.8 µM
- IC50 (PC-3): 2.8 to 8.8 µM
- IC50 (NB-4): 2.8 to 8.8 µM

Structure (SMILES): Cc1cc(O)c2c(c1)C(=O)c1c(c(O)cc(O)c1-c1c(O)cc(O)c3c1C(=O)c1cc(CC(C)O)cc(O)c1C3=O)C2=O (stereo not drawn)
- IC50 (MCF7 [5]): 20.8 mg/L

Structure (SMILES): COC(=O)[C@]1(Cc2ccc(OC)c(CC=C(C)C)c2)OC(=O)C(O)=C1c1ccccc1
- IC50 (SH-SY5Y [8]): < 10 µM
- IC50 (L02): < 10 µM
- IC50 (HepG2 [9]): < 10 µM

Structure (SMILES): COc1cc(O)c2c(c1)C(=O)C1=C(C2=O)[C@H](O)[C@@H](O)[C@@](C)(O)C1
- IC50 (L5178Y): 9.4 µM

Structure (SMILES): CC[C@H](C)C(=O)[C@@H](C)c1c(O)c2c(c3c1SCC(=O)N3)[C@@H](O)[C@@H]1[C@@]3(C)CC[C@H](C(C)(C)O)O[C@@H]3CC[C@@]1(C)O2
- IC50 (HepG2 [1]): 6.4 to 42.6 µM
- IC50 (NCI-H460): 6.4 to 42.6 µM
- IC50 (SF-268): 6.4 to 42.6 µM
- IC50 (MCF7 [2]): 6.4 to 42.6 µM

Structure (SMILES): COc1cc(=O)oc(CO)c1[C@H](O)CO
- IC50 (A549 [3]): 1 to 26.8 mg/L
- IC50 (HL-60): 1 to 26.8 mg/L (≈ 4.63 to 124 µM)
- IC50 (HepG2 [4]): 1 to 26.8 mg/L
- IC50 (MCF7 [10]): 1 to 26.8 mg/L
- IC50 (Raji): 1 to 26.8 mg/L (≈ 4.63 to 124 µM)

Structure (SMILES): CC[C@H](C)C(=O)[C@@H](C)C1=CC(=O)C2=C(O[C@]3(C)CC[C@H]4O[C@@H](C(C)(C)O)CC[C@]4(C)C3=C2)C1=O
- IC50 (HepG2 [1]): 6.4 to 42.6 µM
- IC50 (NCI-H460): 6.4 to 42.6 µM
- IC50 (SF-268): 6.4 to 42.6 µM
- IC50 (MCF7 [2]): 6.4 to 42.6 µM

Structure (SMILES): COC(=O)[C@]1(Cc2ccc(OC)c(CC=C(C)C)c2O)OC(=O)C(O)=C1c1ccc(O)cc1
- IC50 (L02): 3.9 µM
- IC50 (HepG2 [9]): 4.8 µM

Structure (SMILES): CC(C)[C@@H]1CC[C@](C)(O)C2=C1C(=O)[C@](C)(O)C[C@@H]2O
- IC50 (A549 [11]): 0.2 µM
- IC50 (MCF7 [12]): 5.9 µM
